Data taken from PubChem BioAssay (NCI).
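Method: 48-hour compound exposure of cells in 96-well plates, five concentrations, linear interpolation of endpoints. Definition used: TGI = concentration required for complete inhibition of growth.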

Tests used:
Test in all cases: NCI tumour cell line growth inhibition, 48 h
NCI-H23 lung = test system: NCI-H23 lung
SF-268 CNS = test system: SF-268 CNS
M14 melanoma = test system: M14 melanoma
HOP-92 NSCLC = test system: HOP-92 NSCLC
T-47D breast = test system: T-47D breast
HL-60(TB) leukemia = test system: HL-60(TB) leukemia
CCRF-CEM leukemia = test system: CCRF-CEM leukemia
NCI/ADR-RES ovarian = test system: NCI/ADR-RES ovarian
SNB-19 CNS = test system: SNB-19 CNS
SK-MEL-5 melanoma = test system: SK-MEL-5 melanoma
MCF7 breast = test system: MCF7 breast
PC-3 prostate = test system: PC-3 prostate
K-562 leukemia = test system: K-562 leukemia
SK-MEL-2 melanoma = test system: SK-MEL-2 melanoma
SK-MEL-28 melanoma = test system: SK-MEL-28 melanoma
OVCAR-8 ovarian = test system: OVCAR-8 ovarian
HS 578T breast = test system: HS 578T breast
UO-31 renal = test system: UO-31 renal
RPMI-8226 leukemia = test system: RPMI-8226 leukemia
MALME-3M melanoma = test system: MALME-3M melanoma
U251 CNS = test system: U251 CNS
HOP-62 NSCLC = test system: HOP-62 NSCLC
IGROV1 ovarian = test system: IGROV1 ovarian
KM12 colon = test system: KM12 colon
SNB-75 CNS = test system: SNB-75 CNS
NCI-H522 lung = test system: NCI-H522 lung
SK-OV-3 ovarian = test system: SK-OV-3 ovarian
HCT-15 colon = test system: HCT-15 colon
MDA-MB-231 breast = test system: MDA-MB-231 breast
DU-145 prostate = test system: DU-145 prostate
EKVX NSCLC = test system: EKVX NSCLC
786-0 renal = test system: 786-0 renal
MDA-MB-435 = test system: MDA-MB-435
MOLT-4 leukemia = test system: MOLT-4 leukemia
NCI-H460 lung = test system: NCI-H460 lung
HCT-116 colon = test system: HCT-116 colon
A498 renal = test system: A498 renal
BT-549 breast = test system: BT-549 breast
SF-539 CNS = test system: SF-539 CNS
SF-295 CNS = test system: SF-295 CNS
SR leukemia = test system: SR leukemia
HCC-2998 colon = test system: HCC-2998 colon
UACC-62 melanoma = test system: UACC-62 melanoma
ACHN renal = test system: ACHN renal
TK-10 renal = test system: TK-10 renal
A549 NSCLC = test system: A549 NSCLC
RXF 393 renal = test system: RXF 393 renal
SW-620 colon = test system: SW-620 colon
SN12C renal = test system: SN12C renal
COLO 205 colon = test system: COLO 205 colon
NCI-H226 lung = test system: NCI-H226 lung
OVCAR-5 ovarian = test system: OVCAR-5 ovarian
OVCAR-4 ovarian = test system: OVCAR-4 ovarian
UACC-257 melanoma = test system: UACC-257 melanoma
CAKI-1 renal = test system: CAKI-1 renal
LOX IMVI melanoma = test system: LOX IMVI melanoma
MDA-N = test system: MDA-N
HT29 colon = test system: HT29 colon
OVCAR-3 ovarian = test system: OVCAR-3 ovarian

SMILES: Cc1noc(NS(=O)(=O)c2ccc(NC(=O)c3ccc4nc5ccccc5c(Nc5ccc(S(=O)(=O)Nc6onc(C)c6C)cc5)c4c3)cc2)c1C
- TGI (NCI-H23 lung): > 100 µM
- TGI (SF-268 CNS): > 100 µM
- TGI (M14 melanoma): > 100 µM
- TGI (HOP-92 NSCLC): > 100 µM
- TGI (T-47D breast): > 100 µM
- TGI (HL-60(TB) leukemia): > 100 µM
- TGI (CCRF-CEM leukemia): > 100 µM
- TGI (NCI/ADR-RES ovarian): > 100 µM
- TGI (SNB-19 CNS): > 100 µM
- TGI (SK-MEL-5 melanoma): > 100 µM
- TGI (MCF7 breast): > 100 µM
- TGI (PC-3 prostate): > 100 µM
- TGI (K-562 leukemia): 60.7 µM
- TGI (SK-MEL-2 melanoma): > 100 µM
- TGI (SK-MEL-28 melanoma): > 100 µM
- TGI (OVCAR-8 ovarian): > 100 µM
- TGI (HS 578T breast): > 100 µM
- TGI (UO-31 renal): > 100 µM
- TGI (RPMI-8226 leukemia): > 100 µM
- TGI (MALME-3M melanoma): > 100 µM
- TGI (U251 CNS): > 100 µM
- TGI (HOP-62 NSCLC): > 100 µM
- TGI (IGROV1 ovarian): > 100 µM
- TGI (KM12 colon): > 100 µM
- TGI (SNB-75 CNS): > 100 µM
- TGI (NCI-H522 lung): > 100 µM
- TGI (SK-OV-3 ovarian): > 100 µM
- TGI (HCT-15 colon): > 100 µM
- TGI (MDA-MB-231 breast): 80.8 µM
- TGI (DU-145 prostate): > 100 µM
- TGI (EKVX NSCLC): > 100 µM
- TGI (786-0 renal): > 100 µM
- TGI (MDA-MB-435): > 100 µM
- TGI (MOLT-4 leukemia): > 100 µM
- TGI (NCI-H460 lung): > 100 µM
- TGI (HCT-116 colon): > 100 µM
- TGI (A498 renal): > 100 µM
- TGI (BT-549 breast): 88.8 µM
- TGI (SF-539 CNS): > 100 µM
- TGI (SF-295 CNS): > 100 µM
- TGI (SR leukemia): > 100 µM
- TGI (HCC-2998 colon): > 100 µM
- TGI (UACC-62 melanoma): > 100 µM
- TGI (ACHN renal): > 100 µM
- TGI (TK-10 renal): > 100 µM
- TGI (A549 NSCLC): > 100 µM
- TGI (RXF 393 renal): > 100 µM
- TGI (SW-620 colon): > 100 µM
- TGI (SN12C renal): > 100 µM
- TGI (COLO 205 colon): > 100 µM
- TGI (NCI-H226 lung): > 100 µM
- TGI (OVCAR-5 ovarian): > 100 µM
- TGI (OVCAR-4 ovarian): > 100 µM
- TGI (UACC-257 melanoma): > 100 µM
- TGI (CAKI-1 renal): > 100 µM
- TGI (LOX IMVI melanoma): 61.3 µM
- TGI (MDA-N): > 100 µM
- TGI (HT29 colon): > 100 µM
- TGI (OVCAR-3 ovarian): > 100 µM

SMILES: CCN(CC)c1ncnc2c1ncn2CCNC(CO)(CO)CO
- TGI (NCI-H23 lung): > 100 µM
- TGI (SF-268 CNS): > 100 µM
- TGI (M14 melanoma): > 100 µM
- TGI (HOP-92 NSCLC): > 100 µM
- TGI (T-47D breast): > 100 µM
- TGI (HL-60(TB) leukemia): > 100 µM
- TGI (CCRF-CEM leukemia): > 100 µM
- TGI (NCI/ADR-RES ovarian): > 100 µM
- TGI (SNB-19 CNS): > 100 µM
- TGI (SK-MEL-5 melanoma): > 100 µM
- TGI (MCF7 breast): > 100 µM
- TGI (PC-3 prostate): > 100 µM
- TGI (K-562 leukemia): > 100 µM
- TGI (SK-MEL-2 melanoma): > 100 µM
- TGI (SK-MEL-28 melanoma): > 100 µM
- TGI (OVCAR-8 ovarian): > 100 µM
- TGI (HS 578T breast): > 100 µM
- TGI (UO-31 renal): > 100 µM
- TGI (RPMI-8226 leukemia): > 100 µM
- TGI (MALME-3M melanoma): > 100 µM
- TGI (U251 CNS): > 100 µM
- TGI (HOP-62 NSCLC): > 100 µM
- TGI (IGROV1 ovarian): > 100 µM
- TGI (KM12 colon): > 100 µM
- TGI (SNB-75 CNS): > 100 µM
- TGI (NCI-H522 lung): > 100 µM
- TGI (SK-OV-3 ovarian): > 100 µM
- TGI (HCT-15 colon): > 100 µM
- TGI (MDA-MB-231 breast): > 100 µM
- TGI (DU-145 prostate): > 100 µM
- TGI (EKVX NSCLC): > 100 µM
- TGI (786-0 renal): > 100 µM
- TGI (MDA-MB-435): > 100 µM
- TGI (MOLT-4 leukemia): > 100 µM
- TGI (NCI-H460 lung): > 100 µM
- TGI (HCT-116 colon): > 100 µM
- TGI (A498 renal): > 100 µM
- TGI (BT-549 breast): > 100 µM
- TGI (SF-539 CNS): > 100 µM
- TGI (SF-295 CNS): > 100 µM
- TGI (SR leukemia): > 100 µM
- TGI (HCC-2998 colon): > 100 µM
- TGI (UACC-62 melanoma): > 100 µM
- TGI (ACHN renal): > 100 µM
- TGI (TK-10 renal): > 100 µM
- TGI (A549 NSCLC): > 100 µM
- TGI (RXF 393 renal): > 100 µM
- TGI (SW-620 colon): > 100 µM
- TGI (SN12C renal): > 100 µM
- TGI (COLO 205 colon): > 100 µM
- TGI (NCI-H226 lung): > 100 µM
- TGI (OVCAR-5 ovarian): > 100 µM
- TGI (OVCAR-4 ovarian): > 100 µM
- TGI (UACC-257 melanoma): > 100 µM
- TGI (CAKI-1 renal): > 100 µM
- TGI (LOX IMVI melanoma): > 100 µM
- TGI (MDA-N): > 100 µM
- TGI (HT29 colon): > 100 µM
- TGI (OVCAR-3 ovarian): > 100 µM

SMILES: O=c1[nH]c2cc(Cl)ccc2nc1/C(=N/Nc1ccccc1)C(O)c1ccco1 (configuration not stated)
- TGI (NCI-H23 lung): > 100 µM
- TGI (SF-268 CNS): > 100 µM
- TGI (M14 melanoma): > 100 µM
- TGI (HOP-92 NSCLC): > 100 µM
- TGI (T-47D breast): > 100 µM
- TGI (HL-60(TB) leukemia): > 100 µM
- TGI (CCRF-CEM leukemia): > 100 µM
- TGI (NCI/ADR-RES ovarian): > 100 µM
- TGI (SNB-19 CNS): > 100 µM
- TGI (SK-MEL-5 melanoma): > 100 µM
- TGI (MCF7 breast): > 100 µM
- TGI (PC-3 prostate): > 100 µM
- TGI (K-562 leukemia): > 100 µM
- TGI (SK-MEL-2 melanoma): > 100 µM
- TGI (SK-MEL-28 melanoma): > 100 µM
- TGI (OVCAR-8 ovarian): > 100 µM
- TGI (HS 578T breast): > 100 µM
- TGI (UO-31 renal): > 100 µM
- TGI (RPMI-8226 leukemia): > 100 µM
- TGI (MALME-3M melanoma): > 100 µM
- TGI (U251 CNS): > 100 µM
- TGI (HOP-62 NSCLC): > 100 µM
- TGI (IGROV1 ovarian): > 100 µM
- TGI (KM12 colon): > 100 µM
- TGI (SNB-75 CNS): > 100 µM
- TGI (NCI-H522 lung): > 100 µM
- TGI (SK-OV-3 ovarian): > 100 µM
- TGI (HCT-15 colon): > 100 µM
- TGI (MDA-MB-231 breast): > 100 µM
- TGI (DU-145 prostate): > 100 µM
- TGI (EKVX NSCLC): > 100 µM
- TGI (786-0 renal): > 100 µM
- TGI (MDA-MB-435): > 100 µM
- TGI (MOLT-4 leukemia): > 100 µM
- TGI (NCI-H460 lung): > 100 µM
- TGI (HCT-116 colon): > 100 µM
- TGI (A498 renal): > 100 µM
- TGI (BT-549 breast): > 100 µM
- TGI (SF-539 CNS): > 100 µM
- TGI (SF-295 CNS): > 100 µM
- TGI (SR leukemia): > 100 µM
- TGI (HCC-2998 colon): > 100 µM
- TGI (UACC-62 melanoma): > 100 µM
- TGI (ACHN renal): > 100 µM
- TGI (TK-10 renal): > 100 µM
- TGI (A549 NSCLC): > 100 µM
- TGI (RXF 393 renal): > 100 µM
- TGI (SW-620 colon): > 100 µM
- TGI (SN12C renal): > 100 µM
- TGI (COLO 205 colon): > 100 µM
- TGI (NCI-H226 lung): > 100 µM
- TGI (OVCAR-5 ovarian): > 100 µM
- TGI (OVCAR-4 ovarian): > 100 µM
- TGI (UACC-257 melanoma): > 100 µM
- TGI (CAKI-1 renal): > 100 µM
- TGI (LOX IMVI melanoma): > 100 µM
- TGI (MDA-N): > 100 µM
- TGI (HT29 colon): > 100 µM
- TGI (OVCAR-3 ovarian): > 100 µM
